A word on the IC50: it is the point on the concentration scale where inhibition reaches its midpoint.

Bridge positions count the residues as written; N and C are the ends. Ends that are not written are not given here.

Here are results for one substance from article PMC10597491 (PLOS ONE, 2023).

Experiment [1] addresses T1, IL-2/15Rβγc receptor (Homo sapiens, UniProt P31785).
T1 construct: pcDNA3.1 expression vector encoding full-length IL-2Rβ, IL-7Rα, IL-9Rα, or IL-21Rα; TF-1 cells naturally express γc and IL-4Rα; expressed in transfected cells
T1 sequence (P31785 23-369): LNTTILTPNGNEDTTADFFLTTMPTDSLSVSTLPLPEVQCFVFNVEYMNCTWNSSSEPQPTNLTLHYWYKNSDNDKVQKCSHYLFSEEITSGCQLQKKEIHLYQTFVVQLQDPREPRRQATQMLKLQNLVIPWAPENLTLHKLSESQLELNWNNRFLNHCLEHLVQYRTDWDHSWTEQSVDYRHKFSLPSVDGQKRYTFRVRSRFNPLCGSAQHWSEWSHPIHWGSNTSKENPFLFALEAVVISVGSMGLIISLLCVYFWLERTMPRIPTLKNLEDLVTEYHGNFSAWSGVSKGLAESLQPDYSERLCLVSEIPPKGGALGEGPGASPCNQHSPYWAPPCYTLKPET
Put plainly: IL-15-induced STAT activation in TF-1 cells expressing IL-2/15Rβ. In kind it is cell-based. As to conditions: IL-15 at ~EC75; up to 10 μM MDK1472 or 5 μM MDK-703. Here is the method: There is no detectable effect of the novel agonists on the activation of any of the other receptors of the γc family.
(§1) Cells were deprived of growth factors by overnight incubation at 5×10^5 cells/mL in starvation medium (RPMI 1640 + 4.5 g/L glucose + 0.2% FBS + 2 mM L-glutamine + 1 mM NaPyr + 10 mM HEPES + 0.5x penicillin-streptomycin with no cytokine supplement) in T75 flasks. For assays, cells were plated in 96-well V-bottom plates at 2×10^5 cells/well. Three-fold serial dilutions in starvation medium of the test compounds or cytokine were added to the cells and incubated for 30 min at 37°C. Following incubation, cell extracts were prepared by adding a mixture of 10x Cell Lysis Buffer (Cell Signaling Technology Cat# 9803) and 100x HALT Phosphatase and Protease Inhibitor Cocktail (Thermo Fisher Cat# 78442) directly to the wells. The plates were agitated at 25°C for 5 min to prepare cell extracts for immediate use or to be stored at -80°C until assay. […]
TF-1-derived lines separately expressing each gamma common family private receptor were starved overnight at 5x10^5 cells/mL. The following day, the cells were counted and plated at 2x10^6 cells/well in 96-well plates. […] Cell extracts were prepared and analyzed for pSTAT3, pSTAT5, or pSTAT6 accumulation with Pathscan pSTAT ELISA kits as described above.

In experiment [2] the target is T2, IL-2βγc receptor (Homo sapiens, UniProt P31785).
T2 construct: pcDNA3.1 expression vector encoding full-length IL-2Rβ, IL-7Rα, IL-9Rα, or IL-21Rα; TF-1 cells naturally express γc and IL-4Rα; expressed in transfected cells
T2 sequence (P31785 23-369): T1 sequence (P31785 23-369)
In words: IL-2-induced pSTAT5 in TF-1 cells expressing IL-2/15Rβ. The class given is cell-based. The method, then:
as §1, with “assay. Detection of pSTAT5 was performed using a PathScan® Phospho-Stat5 (pTyr694) Sandwich ELISA Kit (Cell Signaling Technology Cat# 7113). Detection of pSTAT6 was performed using a PathScan® Phospho-Stat6 (pTyr641) Sandwich ELISA Kit (Cell Signaling Technology Cat# 7275). Detection of pSTAT3 was performed using a PathScan® Phospho-Stat3 (pTyr705) Sandwich ELISA Kit (Cell Signaling Technology Cat# 7300). Cell lysates were added to pre-coated ELISA wells and incubated at 4°C overnight.” for “assay.”

The target in experiment [3] is T3, human γc ECD (Homo sapiens, UniProt P31785).
T3 construct: human IL-2Rα(aa 23–254)-Fc, Acro Cat# ILG-H5256; purchased Acro ILG-H5256
T3 sequence (P31785 23-254): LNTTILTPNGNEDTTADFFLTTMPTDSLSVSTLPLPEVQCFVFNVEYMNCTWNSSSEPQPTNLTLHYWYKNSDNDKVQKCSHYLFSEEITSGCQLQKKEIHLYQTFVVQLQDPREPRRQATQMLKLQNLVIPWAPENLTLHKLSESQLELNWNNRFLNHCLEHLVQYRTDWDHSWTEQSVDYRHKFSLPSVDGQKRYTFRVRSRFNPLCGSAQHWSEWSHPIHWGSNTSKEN
In words: Competition binding ELISA, human γc ECD. As to conditions: immobilized Fc-γc ECD; tracer biotinylated MDK1188 pre-complexed with Neutravidin-HRP; 4°C. An excerpt: (A, B) Determination of IC50 values in a competition ELISA for compound binding to human and cyno IL-7Rα and γc. The assay format is IL-7Rα-(His)6-tagged ECD or Fc-γc ECD immobilized on 96-well plates. Tracers are C-terminal biotinylated forms of the reference IL-7Rα and γc peptide ligands, each pre-complexed with Neutravidin-HRP (NA-HRP). (C, D) Label-free measurement of the equilibrium dissociation constant (KD) for peptide binding to IL-7Rα and γc extracellular domains with peptides was performed by biolayer interferometry as detailed in methods. Red lines depict 1:1 binding fit from Gator™ software. Blue lines represent individual BLI sensogram data taken every 0.1 seconds.
Binding was determined using a competition binding ELISA. Microtiter plates (Immulon 4HBX flat bottom 96-well) were coated with 50 μL of […] human ECDs: IL-7Rα(aa 21–236)-His6, Sino Biological Cat# 10975-H08H; cynomolgus IL-7Rα(aa 21–235)-His6, Sino Biological Cat# 90332-C08H; human IL-2Rα(aa 23–254)-Fc, Acro Cat# ILG-H5256; cynomolgus IL-2Rα(aa 23–254)-Fc, made in-house, in PBS overnight at 4°C. […] Plates were washed with cold wash buffer, and bound tracer was detected using TMB One Component HRP substrate and Stop Solution (Surmodics Cat# TMBW-1000-01 and LSTP-0100-01). Absorbance at 450 nm was read using Agilent BioTek Synergy HTX Multimode Reader.
A general note: ELISA stands for enzyme-linked immunosorbent assay.

As for “Ac-GWGIPWCTLDPGSLQCAWLGKHGGGGSGGVVCQDWEGVELCWQGG (disulfide 7-16, 32-41) [MDK1472]”, the “inhibition of IL-15 activation” value in experiment [1] is listed as “neither MDK1472 nor MDK-703 exhibit inhibition”. For the same substance, the IC50 is around 5000 nM in experiment [2] and 57 nM in experiment [3].
